Data: BindingDB's records for patent US9670191 (Nerviano Medical Sciences, 2017)

The molecules below were run against T1, Cell division cycle 7-related protein kinase [58-574]/Protein DBF4 homolog A (Homo sapiens, UniProt O00311) (assay: Inhibition Assay of Cdc7 Activity).
T1 construct: 58-574
Protocol: The assay consists of the transfer of radioactivity labeled phosphate moiety by the kinase to an acceptor substrate. The resulting 33P-labeled product is separated from unreacted tracer, transferred into a scintillation cocktail and light emitted is measured in a scintillation counter. The inhibition assay of Cdc7/Dbf4 activity is performed according to the following protocol. The MCM2 substrate is trans-phosphorylated by the Cdc7/Dbf4 complex in the presence of ATP traced with γ33-ATP. The reaction is stopped by addition of Dowex resin in the presence of formic acid. Dowex resin particles capture unreacted γ33-ATP and drag it to the bottom of the well while 33P phosphorylated MCM2 substrate remains in solution. The supernatant is collected, transferred into Optiplate plates and the extent of substrate phosphorylation is evaluated by β counting. The inhibition assay of Cdc7/Dbf4 activity was performed in 96 wells plate according to the following protocol.

T1 sequence (O00311 58-574): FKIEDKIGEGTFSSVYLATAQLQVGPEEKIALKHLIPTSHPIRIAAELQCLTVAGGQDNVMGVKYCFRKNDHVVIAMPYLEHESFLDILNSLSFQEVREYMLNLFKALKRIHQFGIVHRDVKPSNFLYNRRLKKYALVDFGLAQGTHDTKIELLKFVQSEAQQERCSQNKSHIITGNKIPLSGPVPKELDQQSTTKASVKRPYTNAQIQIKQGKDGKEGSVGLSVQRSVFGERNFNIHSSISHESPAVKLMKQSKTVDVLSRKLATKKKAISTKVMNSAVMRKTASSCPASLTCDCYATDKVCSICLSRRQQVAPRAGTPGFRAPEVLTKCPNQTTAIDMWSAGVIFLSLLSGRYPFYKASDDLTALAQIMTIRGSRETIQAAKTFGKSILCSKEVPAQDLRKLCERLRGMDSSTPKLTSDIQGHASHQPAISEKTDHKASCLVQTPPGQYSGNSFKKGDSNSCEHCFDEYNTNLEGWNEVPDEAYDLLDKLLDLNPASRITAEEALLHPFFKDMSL
T1 sequence (Q9UBU7 whole entry, further chain): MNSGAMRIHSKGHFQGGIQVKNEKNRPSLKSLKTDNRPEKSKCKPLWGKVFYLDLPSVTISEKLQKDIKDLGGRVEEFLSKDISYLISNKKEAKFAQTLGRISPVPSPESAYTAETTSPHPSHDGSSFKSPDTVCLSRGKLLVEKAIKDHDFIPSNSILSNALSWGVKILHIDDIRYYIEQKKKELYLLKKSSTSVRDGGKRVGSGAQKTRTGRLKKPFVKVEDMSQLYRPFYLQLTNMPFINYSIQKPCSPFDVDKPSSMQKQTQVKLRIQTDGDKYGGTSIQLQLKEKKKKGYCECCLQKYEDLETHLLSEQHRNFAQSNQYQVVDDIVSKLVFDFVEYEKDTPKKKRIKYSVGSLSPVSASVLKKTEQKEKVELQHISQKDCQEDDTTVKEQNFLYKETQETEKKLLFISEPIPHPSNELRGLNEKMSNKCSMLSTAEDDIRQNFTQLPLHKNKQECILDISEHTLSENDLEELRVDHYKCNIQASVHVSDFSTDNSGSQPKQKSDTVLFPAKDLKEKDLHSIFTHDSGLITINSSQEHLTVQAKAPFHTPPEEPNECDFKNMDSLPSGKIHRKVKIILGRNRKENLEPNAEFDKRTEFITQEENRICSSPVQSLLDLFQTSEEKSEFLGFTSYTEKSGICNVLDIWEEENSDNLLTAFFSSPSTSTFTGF

| IC50 | Compound |
| --- | --- |
| < 1000 nM | NC(=O)c1cc(-c2ccncc2)[nH]c1-c1ccccc1[N+](=O)[O-] [US9670191, A13] |
| < 1000 nM | NC(=O)c1cc(-c2ccncc2)[nH]c1-c1cccc([N+](=O)[O-])c1 [US9670191, A14] |
| < 1000 nM | NC(=O)c1cc(-c2ccncc2)[nH]c1-c1ccc([N+](=O)[O-])cc1 [US9670191, A15] |
| < 1000 nM | N#Cc1cccc(-c2[nH]c(-c3ccncc3)cc2C(N)=O)c1 [US9670191, A23] |
| < 1000 nM | NC(=O)c1cc(-c2ccncc2)[nH]c1-c1ccncc1 [US9670191, C3] |
| < 1000 nM | NC(=O)c1cc(-c2ccnc(N)n2)[nH]c1-c1cccc2ccccc12 [US9670191, F5] |
| < 1000 nM | NC(=O)c1cc(-c2ccnc(N)n2)[nH]c1-c1ccc2ccccc2c1 [US9670191, F6] |
| < 1000 nM | NC(=O)c1cc(-c2ccnc(N)n2)[nH]c1-c1cccs1 [US9670191, G2] |
| < 1000 nM | NC(=O)c1cc(-c2ccnc(N)n2)[nH]c1-c1cc2ccccc2s1 [US9670191, G5] |
| < 1000 nM | NC(=O)c1cc(-c2ccnc(N)n2)[nH]c1-c1csc2ccccc12 [US9670191, G6] |
| < 1000 nM | NC(=O)c1cc(-c2ccnc(N)n2)[nH]c1-c1cc2ccccc2o1 [US9670191, G9] |
| < 1000 nM | NC(=O)c1cc(-c2ccnc(N)n2)[nH]c1-c1ccccn1 [US9670191, G12] |
| < 1000 nM | Cn1cc(-c2[nH]c(-c3ccnc(N)n3)cc2C(N)=O)c2ccccc21 [US9670191, G13] |
| < 1000 nM | Cn1c(-c2[nH]c(-c3ccnc(N)n3)cc2C(N)=O)cc2ccccc21 [US9670191, G14] |
| < 1000 nM | NC(=O)c1cc(-c2ccnc(N)n2)[nH]c1-c1ccc2sccc2c1 [US9670191, G15] |
| < 1000 nM | CNC(=O)c1cc(-c2ccnc(N)n2)[nH]c1-c1ccccc1 [US9670191, M1] |
| < 1000 nM | NC(=O)c1c(-c2ccccc2)[nH]c(-c2ccnc(N)n2)c1I [US9670191, N3] |
| < 1000 nM | C=Cc1c(-c2ccnc(N)n2)[nH]c(-c2ccccc2)c1C(N)=O [US9670191, O1] |
| < 1000 nM | NC(=O)c1c[nH]c(-c2ccncc2)c1 [US9670191, P1] |
| < 1000 nM | NC(=O)c1cc(-c2ccncc2)[nH]c1C1CCCCC1 [US9670191, Q1] |
| < 1000 nM | CC(C)(C)OC(=O)N1CCC(c2[nH]c(-c3ccncc3)cc2C(N)=O)CC1 [US9670191, Q2] |
| < 1000 nM | NC(=O)c1cc(-c2ccncc2)[nH]c1C1CCNCC1 [US9670191, Q3] |
| < 1000 nM | NC(=O)c1cc(-c2ccncc2)[nH]c1Br [US9670191, R1] |
| < 1000 nM | NC(=O)c1cc(-c2ccnc(N)n2)sc1-c1ccccc1 [US9670191, S1] |
| < 1000 nM | NC(=O)c1cc(-c2ccnc(N)n2)oc1-c1ccccc1 [US9670191, T1] |
| < 1000 nM | NC(=O)c1cc(-c2nc(N)ncc2F)[nH]c1-c1ccccc1 [US9670191, V1] |
| < 1000 nM | NC(=O)c1c(-c2ccccc2)[nH]c(-c2ccnc(N)n2)c1Cl [US9670191, Z1] |
